Consider 7 compounds from ChEMBL document CHEMBL5042552, “Site-Specific Isopeptide Bond Formation: A Powerful Tool for the Generation of Potent and Nontoxic Antimicrobial Peptides” (J Med Chem, 2022).

Activity calls are given as the source filed them. No cut-off for these calls is given here. Starred links: 1 amine or outer side, 2 acyl side, 3 side chain; linkers in the order of their positions; H or OH if unused. Positions of bridges follow the written chain, without caps; N, C: chain ends. Non-standard residues stand in square brackets, D forms with d. Residues, ends and D or L forms follow the SMILES beside them. Groups on a side chain read outwards from the residue. Chains are numbered I, II in the order given. εLys = N[C@@H](CCCCN[*:1])C(=O)[*:2]

In one series the test system is HEK293. Description: Cytotoxicity against HEK293 cells assessed as reduction in cell viability at 10 to 100 uM incubated for 24 hrs by XTT assay. It is filed as toxicity, cell-based. The following applies: human, hek293, 24 h, dose 10-100 µM.
Series [1] is described as follows: Stability in human plasma after 2 hrs by RP-HPLC method. It is filed as ADME, cell-free.
Series [2] deals with RAW264.7. The series is described as follows: Cytotoxicity against mouse RAW264.7 cells assessed as reduction in cell viability at 10 to 100 uM incubated for 24 hrs by XTT assay. It is filed as toxicity, cell-based. The following applies: raw264.7, 24 h, dose 10-100 µM. (In general: Tetrazolium dyes change colour on reduction, which living cells bring about.)
The nature of series [3]: Hemolytic activity in human erythrocytes at 2.5 to 80 uM incubated for 1 hr by microplate reader assay. In kind it is toxicity, cell-based. The following applies: erythrocyte, dose 2.5-80 µM.
The next series deals with Trypsin (Homo sapiens, UniProt P07477+P07478+P35030). The series is described as follows: Stability of compound assessed as trypsin (unknown origin) mediated compound degradation at 100 uM measured after 30 mins by RP-HPLC method. In kind it is ADME, protein assay. The following applies: 0.5 h.
Series [4] is described as follows: Hemolytic activity in human erythrocytes at 80 uM incubated for 1 hr by microplate reader assay. It is filed as toxicity, cell-based. The conditions noted are these: erythrocyte.
A further series concerns Staphylococcus aureus. The series is described as follows: Induction of membrane permeabilization in Staphylococcus aureus at MIC concentration by SYTOX-green staining based flow cytometry method. It is filed as functional. On the technique in general: In flow cytometry, cells or beads pass a laser one at a time.
In a further series the test system is Escherichia coli. Description: Induction of membrane permeabilization in Escherichia coli at MIC concentration by SYTOX-green staining based flow cytometry method. In kind it is functional.
For series [5], the system named is Cell membrane. The series is described as follows: Disruption of membrane integrity in Escherichia coli at MIC by […] green dye based confocal microscopy analysis.
The test system of another series is Bacillus subtilis. Description: Induction of membrane permeabilization in Bacillus subtilis at MIC concentration by SYTOX-green staining based flow cytometry method. In kind it is functional.
In the next series the test system is Pseudomonas aeruginosa. The series is described as follows: Induction of membrane permeabilization in Pseudomonas aeruginosa at MIC concentration by SYTOX-green staining based flow cytometry method. It is filed as functional.
The subject of series [6] is Cell membrane. The series is described as follows: Disruption of membrane integrity in Staphylococcus aureus at MIC by […] green dye based confocal microscopy analysis.
In series [7] the test system is Cell membrane. The series is described as follows: Disruption of membrane integrity in Pseudomonas aeruginosa at MIC by […] green dye based confocal microscopy analysis.
The test system of series [8] is RAW264.7. The series is described as follows: Cytotoxicity against mouse RAW264.7 cells assessed as reduction in cell viability at 100 uM incubated for 24 hrs by XTT assay. It is filed as toxicity, cell-based. The conditions noted are these: raw264.7, 24 h.
Series [9] concerns Cell membrane. Description: Disruption of membrane integrity in Bacillus subtilis at MIC by […] green dye based confocal microscopy analysis.
Series [10] is described as follows: Hemolytic activity in human erythrocytes at 12.5 uM incubated for 1 hr by microplate reader assay. It is filed as toxicity, cell-based. The conditions noted are these: erythrocyte.

In the case of `CC(C)C[C@H](NC(=O)[C@H](CC(C)C)NC(=O)[C@H](CCCCN)NC(=O)[C@H](CC(C)C)NC(=O)[C@H](CC(C)C)NC(=O)[C@H](CCCCN)NC(=O)[C@H](CCCCN)NC(=O)[C@H](CC(C)C)NC(=O)[C@H](CC(C)C)NC(=O)[C@@H](N)CCCCNC(=O)[C@H](CCCCN)NC(=O)[C@H](CC(C)C)NC(=O)[C@H](CC(C)C)NC(=O)[C@H](CCCCN)NC(=O)[C@@H](N)CC(C)C)C(N)=O` (I: H-KLLKKLLKLL-NH2 / II: H-LKLLK; amide I:1-II:C), the figures for the Activity result (in the series on HEK293; in the series on RAW264.7 [2]; in [3]) were “Toxic”, “Toxic” and “Non-Toxic”, respectively. For the same compound, the Stability entry in series [1] is given as “Stable”; at Trypsin it was “Unstable”.

As to `CC(C)C[C@H](NC(=O)[C@H](CC(C)C)NC(=O)[C@H](CCCCN)NC(=O)[C@H](CC(C)C)NC(=O)[C@H](CC(C)C)NC(=O)[C@H](CCCCN)NC(=O)[C@@H](N)CCCCNC(=O)[C@H](CC(C)C)NC(=O)[C@H](CC(C)C)NC(=O)[C@H](CCCCN)NC(=O)[C@H](CCCCN)NC(=O)[C@H](CC(C)C)NC(=O)[C@H](CC(C)C)NC(=O)[C@H](CCCCN)NC(=O)[C@@H](N)CC(C)C)C(N)=O` (H-LKLLKKLL[εLys]KLLKLL-NH2), the Activity entry in series [4] is on record as “Non-Toxic”; in the series on Staphylococcus aureus, 89%; with Escherichia coli, 98%; with Bacillus subtilis it was 98%; in the series with Pseudomonas aeruginosa, 98%; with RAW264.7 [8], “Non-Toxic”. In addition, the result in the series with Cell membrane [5], in the series with Cell membrane [6], in the series on Cell membrane [7] and in the series with Cell membrane [9] was Active. Besides, the Stability entry in series [1] is reported as “Stable”.

Take `CC(C)C[C@H](NC(=O)[C@H](CC(C)C)NC(=O)[C@H](CCCCN)NC(=O)[C@H](CC(C)C)NC(=O)[C@H](CC(C)C)NC(=O)[C@H](CCCCN)NC(=O)[C@H](CCCCN)NC(=O)[C@H](CC(C)C)NC(=O)[C@H](CC(C)C)NC(=O)[C@H](CCCCN)NC(=O)[C@@H](N)CCCCNC(=O)[C@H](CC(C)C)NC(=O)[C@H](CC(C)C)NC(=O)[C@H](CCCCN)NC(=O)[C@@H](N)CC(C)C)C(N)=O` (H-K([Leu-Leu-Lys-Leu])KLLKKLLKLL-NH2): the Activity result in the series on HEK293 is “Toxic”; in the series with RAW264.7 [2], “Toxic”; in series [3], “Non-Toxic”. The Stability entry in series [1] is recorded as “Stable”; on Trypsin, “Unstable”.

For `CC(C)C[C@H](NC(=O)[C@H](CC(C)C)NC(=O)[C@H](CCCCN)NC(=O)[C@H](CC(C)C)NC(=O)[C@H](CC(C)C)NC(=O)[C@@H](N)CCCCNC(=O)[C@H](CCCCN)NC(=O)[C@H](CC(C)C)NC(=O)[C@H](CC(C)C)NC(=O)[C@H](CCCCN)NC(=O)[C@H](CCCCN)NC(=O)[C@H](CC(C)C)NC(=O)[C@H](CC(C)C)NC(=O)[C@H](CCCCN)NC(=O)[C@@H](N)CC(C)C)C(N)=O` (H-LKLLKKLLK[εLys]LLKLL-NH2), the Activity entry (in series [4]; with RAW264.7 [8]; in [3]) was “Non-Toxic” each time. Moreover, the figures for the Stability entry (in [1]; at Trypsin) were “Stable” and “Unstable”, respectively.

With `CC(C)C[C@H](NC(=O)[C@H](CC(C)C)NC(=O)[C@H](CCCCN)NC(=O)[C@H](CC(C)C)NC(=O)[C@H](CC(C)C)NC(=O)[C@H](CCCCN)NC(=O)[C@H](CCCCN)NC(=O)[C@H](CC(C)C)NC(=O)[C@H](CC(C)C)NC(=O)[C@H](CCCCN)NC(=O)[C@H](CCCCN)NC(=O)[C@H](CC(C)C)NC(=O)[C@H](CC(C)C)NC(=O)[C@@H](N)CCCCNC(=O)[C@@H](N)CC(C)C)C(N)=O` (H-K(Leu)LLKKLLKKLLKLL-NH2), the values for the Activity entry (in the series on HEK293; in the series on RAW264.7 [2]; in series [3]) were “Toxic”, “Toxic” and “Non-Toxic”, respectively. The Stability entry is reported as “Stable” in series [1] and “Unstable” at Trypsin.

As for `CC(C)C[C@H](NC(=O)[C@H](CC(C)C)NC(=O)[C@H](CCCCN)NC(=O)[C@H](CC(C)C)NC(=O)[C@H](CC(C)C)NC(=O)[C@H](CCCCN)NC(=O)[C@H](CCCCN)NC(=O)[C@H](CC(C)C)NC(=O)[C@H](CC(C)C)NC(=O)[C@H](CCCCN)NC(=O)[C@H](CCCCN)NC(=O)[C@H](CC(C)C)NC(=O)[C@H](CC(C)C)NC(=O)[C@H](CCCCN)NC(=O)[C@@H](N)CC(C)C)C(N)=O` (H-LKLLKKLLKKLLKLL-NH2), the Activity entry is listed as “Toxic” in [10]; “Toxic” with HEK293; 46% in the series with Staphylococcus aureus; 98% in the series on Escherichia coli; 41% with Bacillus subtilis; 98% in the series on Pseudomonas aeruginosa. Also, the Activity result in the series with RAW264.7 [2] is on record as “Toxic”. Also, the outcome with Cell membrane [5], in the series with Cell membrane [6], in the series on Cell membrane [7] and in the series with Cell membrane [9] was inactive. The Stability entry is recorded as “Stable” in series [1] and “Unstable” at Trypsin.

`CC(C)C[C@H](NC(=O)[C@H](CC(C)C)NC(=O)[C@@H](N)CCCCNC(=O)[C@H](CC(C)C)NC(=O)[C@H](CC(C)C)NC(=O)[C@H](CCCCN)NC(=O)[C@H](CCCCN)NC(=O)[C@H](CC(C)C)NC(=O)[C@H](CC(C)C)NC(=O)[C@H](CCCCN)NC(=O)[C@H](CCCCN)NC(=O)[C@H](CC(C)C)NC(=O)[C@H](CC(C)C)NC(=O)[C@H](CCCCN)NC(=O)[C@@H](N)CC(C)C)C(N)=O` (H-LKLLKKLLKKLL[εLys]LL-NH2): the Activity entry in the series on HEK293 and in the series on RAW264.7 [2] was “Toxic” each time. The Stability result was “Stable” in series [1] and “Unstable” on Trypsin.
